Measurements reported in patent publication EP0366451A2, “The use of oxidized polyamines, especially NN'-Bis-(3-propionaldehyde)-1-4-diaminobutane (sperminedialdehyde) as immunosuppressive agents” (ORTHO PHARMACEUTICAL CORPORATION, priority 1988, dated 1990).

How the values were obtained:
[1] = intraperitoneally; Israel et al.; cited from earlier work
Murine bone marrow cells = assay: Con A driven mouse bone marrow cell proliferation ([3H]-thymidine incorporation); format: cell-based
Experimental: Mouse spleen and bone marrow cells were incubated separately with different concentrations of spermine dialdehyde in vitro for 1 hour. Cells were washed extensively and set up in a Con A stimulated proliferation assay. A graph is depicted wherein percentage response is plotted as a function of various concentrations of spermine dialdehyde.
Mice were sacrificed by cervical dislocation and disinfected by dipping in a Dettol solution. Bone marrow cells were obtained from suitable long bones by flushing with a […] needle. Cells were then washed three times with RPMI before use.
Mouse spleen cells were cultured for 3 days in flat bottom microtiter relates at 10⁵ cells per well in the presence of […] of Con A. 3H-thymidine (0.1 microcurie/well) was added for the last 4-6 hours of the culture period. Cells were harvested as described above.
Mouse bone marrow and spleen cells were each incubated for 1 hour with different concentrations of spermine dialdehyde. Cells were then washed 3 times with RPMI and set up in a Con A driven proliferation assay. Results are depicted in Figure 2.
For [³H]-thymidine incorporation, drug or vehicle treated bone marrow or spleen cells were plated in RPMI-1640, containing 10% fetal bovine serum, 10 µM β-mercaptoethanol, 25 mM HEPES and 2 mM glutamine. Con-A (4 µg/ml and […]) was used as mitogens for bone marrow and spleen cells. […]

O=CCCNCCCCNCCC=O [SDA, NN′-Bis-(3-propionaldehyde)-1-4-diaminobutane]
LD100 [1]: 40 mg/kg | [³H]-thymidine incorporation after DEAB pretreatment (Murine bone marrow cells; DEAB (30 µM) pretreatment): higher susceptibility at lower concentrations of SDA | [³H]-thymidine incorporation (Murine bone marrow cells; treated in PBS based medium, cultured 3 days): dose dependent decrease
